According to patent US6294547A, “Naphthyridine deratives or salts thereof” (Nippon Kayaku Kabushiki Kaisha, priority 1997, dated 2001):
Where a name gives a salt, the structure may show the parent alone.

Tests used:
NK-2 receptors [1] = test: Inhibitory effect on bronchoconstriction caused by stimulation of NK-2 receptors (Nle10 neurokinin A (4-10)); format: in vivo, Hartley strain male guinea pigs
Protocol: There were used non-treated Hartley strain male guinea pigs and Hartley strain male guinea pigs received to active sensitization by subcutaneous administration of 30 mg/kg of ovalbumin 14 to 21 days before. The guinea pigs were anesthetized with pentobarbital and a tube was inserted into the trachea of each guinea pig. The guinea pigs were subjected to positive pressure respiration by means of an artificial respiratory apparatus at 10 ml/kg and 60 times/minute. The pressure in the edge of the tube in the trachea was measured as an indication of bronchoconstriction. Spontaneous respiration was inhibited by administering succinylcholine. The non-treated guinea pigs were repeatedly and intravenously injected with 2 nmol/kg of Nle10 neurokinin A (4-10), a specific stimulating agent for NK-2 receptors at intervals of 10 minutes. After the bronchoconstriction thus caused became stable, each drug was administered intravenously, orally or in duodenum. Nle10 neurokinin A (4-10) was intravenously injected again 3 minutes after the intravenous administration or 50 minutes after the oral administration or the administration in duodenum. The rate of inhibition by the drug was determined relative to the bronchoconstriction before the drug administration.

NK-2 receptors [2] = target: T1, NK-2 receptors (Rattus norvegicus, UniProt P16610); test: Binding to NK-2 receptors (inhibition of radioactive 125I-neurokinin A binding); format: Fischer strain male rats (duodenum membranes); details: rat duodenum membrane; 125I-neurokinin A 1×10^-9 M; 90 min, room temperature; read-out: IC50 of drugs in binding of radioactive neurokinin A
T1 construct: Duodenums isolated from Fischer strain male rats were homogenized; from tissue; host or cells: duodenum membranes of male Fischer rats
T1 sequence (P16610 1-390): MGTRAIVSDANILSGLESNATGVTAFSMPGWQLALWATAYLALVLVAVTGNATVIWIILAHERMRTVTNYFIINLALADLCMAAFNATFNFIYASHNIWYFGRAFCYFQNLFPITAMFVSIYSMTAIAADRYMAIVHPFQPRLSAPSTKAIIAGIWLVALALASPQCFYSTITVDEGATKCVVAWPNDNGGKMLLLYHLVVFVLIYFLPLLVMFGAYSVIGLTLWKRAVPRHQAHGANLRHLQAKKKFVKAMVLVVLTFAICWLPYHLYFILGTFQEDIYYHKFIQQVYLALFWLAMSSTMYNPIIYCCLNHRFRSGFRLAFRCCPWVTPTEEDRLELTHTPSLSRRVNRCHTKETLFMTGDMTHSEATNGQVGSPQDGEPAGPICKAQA
Protocol: Duodenums isolated from Fischer strain male rats were homogenized in 50 mM Tris-hydrochloric acid buffer (pH 7.4) containing saccharose (100 mg/ml) and ethylenediaminetetraacetic acid (1 mM), and the resulting homogenate was centrifuged at 48,000 g and 4° C. for 20 minutes. The pellet thus obtained was washed three times with 10 times as much 50 mM Tris-hydrochloric acid buffer (pH 7.4) containing KCl (300 mM) and ethylenediaminetetraacetic acid (10 mM) as the pellet by volume, and the resulting membrane preparation was suspended in 10 times as much 50 mM Tris-hydrochloric acid buffer (pH 7.4) as the membrane preparation by volume and stored at -80° C. until use. The membrane preparation (20 mg/ml) was incubated together with a radioactive ligand ^125 I-neurokinin A (1×10^-9 M) at room temperature for 90 minutes in the presence of each drug or a solvent therefor in 50 mM Tris-hydrochloricacid buffer (pH 7.4) containing bovine serum albumin (10 mg/ml), bacitracin (40 μg/ml), leupeptin (4 μg/ml), chymostatin (50 μg/ml), antipain (1×10^-4 M) and MnCl2 (1 mM). […] Then, radioactivity in the filter was measured with a gamma counter. The 50% inhibitory concentration (IC50) of the drug was determined by means of a regression line by considering radioactivity in the presence of Nle10 neurokinin A (4-10) (3×10^-6 M) to be due to nonspecific binding, and measuring the rate of inhibition of specific binding by the drug by carrying out a control experiment using the solvent alone.

Mouse = test: Toxic effect on mouse, intravenous; format: in vivo; details: 65 μmol/kg intravenous
Text: The toxicity of the compounds of the present invention was investigated.

[3] = 0.5 μmol/kg intravenous, 3 min after administration
[4] = 8 μmol/kg oral, 50 min after administration
[5] = 1 μmol/kg intravenous, 3 min after administration

SMILES	IC50 (NK-2 receptors [2])	Inhibition (rate), stimulation of NK-2 receptors (NK-2 receptors [1]; [3])	Inhibition (rate), stimulation of NK-2 receptors (NK-2 receptors [1]; [4])	Toxicity (Mouse)	Inhibition (rate), stimulation of NK-2 receptors (NK-2 receptors [1]; 0.6 μmol/kg intravenous, 3 min after administration)	Inhibition (rate), stimulation of NK-2 receptors (NK-2 receptors [1]; [5])	Inhibition (rate), stimulation of NK-2 receptors (NK-2 receptors [1]; 5 μmol/kg in duodenum, 50 min after administration)
CC(=O)Nc1c2c(nc3ccccc13)CCN(CCC(CN(C)C(=O)c1ccccc1)c1ccc(Cl)c(Cl)c1)C2 (single isomer, unassigned) [Example 27, 2-[(-)-4-(N-benzoyl-N-methyl)amino-3-(3-4-dichlorophenylbutyl]-10-methylcarbonylamino-1,2,3,4-tetrahydro-benzo[b][1,6]naphthyridine fumarate]	18 nM	100.0%	81.5%	None			
CN(CC(CCN1CCc2nc3ccccc3c(C(N)=O)c2C1)c1ccc(Cl)c(Cl)c1)C(=O)c1ccccc1 (single isomer, unassigned) [Example 29, 2-[(-)-4-(N-benzoyl-N-methyl)amino-3-(3,4-dichlorophenyl)butyl]-1,2,3,4-tetrahydro-benzo-[b][1,6]naphthyridine-10-carboxamide fumarate]	59 nM		43.5%		100.0%		
COC(=O)c1c2c(nc3ccccc13)CCN(CCC(CN(C)C(=O)c1ccccc1)c1ccc(Cl)c(Cl)c1)C2 (single isomer, unassigned) [Example 31, 2-[(-)-4-(N-benzoyl-N-methyl1amino-3-(3,4-dichlorophenyl)butyl]-10-methoxycarbonyl-1,2,3,4-tetrahydro-benzo[b][1,6]naphthyridine fumarate]	96 nM		53.5%			100.0%	
CN(CC(CCN1CCc2nc3ccccc3c(C(=O)O)c2C1)c1ccc(Cl)c(Cl)c1)C(=O)c1ccccc1 (single isomer, unassigned) [Example 33, 2-[(-)-4-(N-benzoyl-N-methyl)amino-3-(3,4-dichlorophenyl)butyl]-1,2,3,4-tetrahydro-benzo-[b][1,6]naphthyridine-10-carboxylic acid fumarate]	94 nM					57.5%	

More lines, main results first:

IC50 (NK-2 receptors [2])	SMILES	Inhibition (rate), stimulation of NK-2 receptors (NK-2 receptors [1]; [3])	Inhibition (rate), stimulation of NK-2 receptors (NK-2 receptors [1]; [4])	Toxicity (Mouse)	Inhibition (rate), stimulation of NK-2 receptors (NK-2 receptors [1]; 0.6 μmol/kg intravenous, 3 min after administration)	Inhibition (rate), stimulation of NK-2 receptors (NK-2 receptors [1]; [5])	Inhibition (rate), stimulation of NK-2 receptors (NK-2 receptors [1]; 5 μmol/kg in duodenum, 50 min after administration)
90 nM	CN(CC(CCN1CCc2nc3ccccc3c(CO)c2C1)c1ccc(Cl)c(Cl)c1)C(=O)c1ccccc1 (single isomer, unassigned) [Example 37, 2-[(-)-4-(N-benzoyl-N-methyl)amino-3-(3,4-dichlorophenylbutyl]-10-hydroxymethyl-1,2,3,4-tetrahydro-benzo-[b][1,6]naphthyridine fumarate]					97.5%	
70 nM	CN(CC(CCN1CCc2nc3ccccc3c(-c3ccccc3)c2C1)c1ccc(Cl)c(Cl)c1)C(=O)c1ccccc1 (single isomer, unassigned) [Example 39, 2-[(-)-4-(N-benzoyl-N-methyl)amino-3-(3,4-dichlorophenyl)butyl]-10-phenyl-1,2,3,4-tetrahydro-benzo[b][1,6]naphthyridine fumarate]	70.0%					
30 nM	COC(=O)Nc1c2c(nc3ccccc13)CCN(CCC(CN(C)C(=O)c1ccccc1)c1ccc(Cl)c(Cl)c1)C2 (single isomer, unassigned) [Example 41, 2-[(-)-4-(N-benzoyl-N-methyl)amino-3-(3,4-dichlorophenyl)butyl]-10-methoxycarbonylamino-1,2,3,4-tetrahydro-benzo[b][1,6]naphthyridine fumarate]	97.0%					62.0%
66 nM	COC(=O)N(C)c1c2c(nc3ccccc13)CCN(CCC(CN(C)C(=O)c1ccccc1)c1ccc(Cl)c(Cl)c1)C2 (single isomer, unassigned) [Example 43, 2-[(-)-4-(N-benzoyl-N-methyl)amino-3-(3,4-dichlorophenyl)butyl]-10-(N-methyl-N-methoxycarbonyl)-amino-1,2,3,4-tetrahydro-benzo[b][1,6]naphthyridine fumarate]	86.2%					
